Source: US7893256B2, “Azabicycloalkane compounds” (Theravance, Inc., priority 2003, dated 2011)

Legend:
hM2 receptor [1] = target: T1, hM2 receptor (Homo sapiens, UniProt P08172); experiment: Blockade of agonist-mediated inhibition of cAMP accumulation (Assay Test Procedure D, A); assay type: cell-based; conditions: CHO-K1 cells expressing the hM2 receptor; read-out: Ki value for blockade of oxotremorine-inhibition of forskolin-mediated cAMP accumulation
T1 construct: expressed in transfected cells; host or cells: CHO-K1 cells
T1 sequence (P08172 1-466): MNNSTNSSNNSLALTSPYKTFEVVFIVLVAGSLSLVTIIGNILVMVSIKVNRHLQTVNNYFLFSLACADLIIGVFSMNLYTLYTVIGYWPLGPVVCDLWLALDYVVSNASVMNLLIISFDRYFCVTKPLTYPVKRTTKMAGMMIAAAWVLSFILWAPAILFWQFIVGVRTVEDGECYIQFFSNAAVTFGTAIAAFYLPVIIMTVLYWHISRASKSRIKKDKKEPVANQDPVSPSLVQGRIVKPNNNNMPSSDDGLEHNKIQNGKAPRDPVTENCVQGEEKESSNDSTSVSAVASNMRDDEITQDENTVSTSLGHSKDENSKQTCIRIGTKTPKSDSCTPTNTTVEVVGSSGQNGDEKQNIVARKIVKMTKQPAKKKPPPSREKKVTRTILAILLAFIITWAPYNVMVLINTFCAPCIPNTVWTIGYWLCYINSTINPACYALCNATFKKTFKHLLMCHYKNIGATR
Procedure: In this assay, the functional potency of a test compound was determined by measuring the ability of the test compound to block oxotremorine-inhibition of forskolin-mediated cAMP accumulation in CHO-K1 cells expressing the hM2 receptor. cAMP assays were performed in a radioimmunoassay format using the Flashplate Adenylyl Cyclase Activation Assay System with ^125I-cAMP (NEN SMP004B, PerkinElmer Life Sciences Inc., Boston, Mass.), according to the manufacturer's instructions. Cells were rinsed once with dPBS and lifted with Trypsin-EDTA solution (0.05% trypsin/0.53 mM EDTA) as described in the Cell Culture and Membrane Preparation section above. The detached cells were washed twice by centrifugation at 650×g for five minutes in 50 mL dPBS. The cell pellet was then re-suspended in 10 mL dPBS, and the cells were counted with a Coulter Z1 Dual Particle Counter (Beckman Coulter, Fullerton, Calif.). […]
Reactions were incubated for 10 minutes at 37° C. and stopped by addition of 100 μL ice-cold detection buffer. Plates were sealed, incubated overnight at room temperature and counted the next morning on a PerkinElmer TopCount liquid scintillation counter (PerkinElmer Inc., Wellesley, Mass.). The amount of cAMP produced (pmol/well) was calculated based on the counts observed for the samples and cAMP standards, as described in the manufacturer's user manual. […]

hM2 receptor [2] = target: T1, hM2 receptor; experiment: Blockade of agonist-mediated [35S]GTPγS binding (Assay Test Procedure D, B); assay type: biochemical; conditions: CHO-K1 cells expressing the hM2 receptor; read-out: Ki value for blockade of oxotremorine-stimulated [35S]GTPγS binding
Procedure: In a second functional assay, the functional potency of test compounds was determined by measuring the ability of the compounds to block oxotremorine-stimulated [^35S]GTPγS binding in CHO-K1 cells expressing the hM2 receptor.
At the time of use, frozen membranes were thawed and then diluted in assay buffer with a final target tissue concentration of 5-10 μg protein per well. The membranes were briefly homogenized using a Polytron PT-2100 tissue disrupter and then added to the assay plates.
The EC90 value (effective concentration for 90% maximal response) for stimulation of [^35S]GTPγS binding by the agonist oxotremorine was, determined in each experiment.
To determine the ability of a test compound to inhibit oxotremorine-stimulated [^35S]GTPγS binding, the following was added to each well of 96 well plates: […] of assay buffer with [^35S]GTPγS (0.4 nM), 25 μL of oxotremorine (EC90) and GDP (3 uM), 25 μL of diluted test compound and 25 μL CHO cell membranes expressing the hM2 receptor. […] Microscint-20 scintillation liquid (50 μL) was added to each well, and each plate was sealed and radioactivity counted on a Topcounter (PerkinElmer). Data were analyzed by nonlinear regression analysis with the GraphPad Prism Software package (GraphPad Software, Inc., San Diego, Calif.) using the non-linear regression, one-site competition equation. […]

Question: How did the Ki (hM2 receptor [1]) turn out when `C[N+]1(CCCCCCCCCNC[C@H](O)c2ccc(O)c3[nH]c(=O)ccc23)C2CC(OC(=O)C(O)(c3cccs3)c3cccs3)CC1C1OC12.C[N+]1(CCCCCCCCCNC[C@H](O)c2ccc(O)c3[nH]c(=O)ccc23)C2CC(OC(=O)C(O)(c3cccs3)c3cccs3)CC1C1OC12.O=C([O-])C(F)(F)F.O=C([O-])C(F)(F)F` (stereo partly drawn) [Example 1, 7-(2-Hydroxy-2,2-dithiophen-2-ylacetoxy)-9-{9-[(R)-2-hydroxy-2-(8-hydroxy-2-oxo-1,2-dihydroquinolin-5-yl)ethylamino]nonyl}-9-methyl-3-oxa-9-azonia-tricyclo[3.3.1.0^2,4]nonane Ditrifluoroacetate] was run?
Answer: Its Ki is under 0.05 µM.

Question: And the Ki (hM2 receptor [2])?
Answer: The Ki was under 0.05 µM.
